Results published in US10457662B2, “Substituted amides for treating and preventing cancer” (The Regents of the University of Michigan, priority 2015, dated 2019).
Read-outs that look alike come from different tables or passages of the source.

Key:
[1] = test system: BxPC-3; assay: MTT assay, BxPC-3; assay type: cell-based; conditions: Homo sapiens
Description: (§1) Experiments conducted during the course of developing embodiments for the present invention involved performance of a phenotypic screen of a library of 20,000 small-molecules representing five million compounds. […] Subsequently, a lead optimization campaign was performed to synthesize a series of close analogs. Initially, the 50 analogs were tested in three pancreatic cancer cell lines using MTT assay (Table 1).
(§2) For in vitro studies, compounds were dissolved in DMSO at 10 mM as stock solutions and stored at −20° C. For in vivo studies, QN523 was dissolved in a vehicle containing 5% DMSO, 35% propylene glycol and 60% saline, and administered at 100 uL through intraperitoneal injections.

[2] = test system: MiaPaCa-2; assay: MTT assay, MiaPaCa-2; conditions: Homo sapiens
Description: Cells were treated with QN523 for 1, 4, 8, 24, 48, 72 h and left in culture in fresh media. MTT assay was performed 72 h after initiation of treatment. Data points represent Mean±SD from three independent experiments.
as §1, §2

[3] = test system: Panc-1; assay: MTT assay, Panc-1; assay type: cell-based; conditions: Homo sapiens
Description: as §1, §2

[4] = test system: three pancreatic cancer cell lines; assay: MTT assay, three pancreatic cancer cell lines; assay type: cell-based; conditions: read-out: Mark: IC50 lower than 1 μM in at least one cell line, Table 1
[5] = BXPC-3, MTT assay, Mean ± SD, three independent experiments, read-out: IC50 Values BxPC-3
[6] = MIA PaCa-2, read-out: IC50 Values MiaPaCa-2
[7] = PANC-1, MTT assay, Mean ± SD, three independent experiments, read-out: IC50 Values Panc-1
[8] = BXPC-3, read-out: IC50 Values BxPC-3
[9] = MIA PaCa-2, read-out: IC50 Values MiaPaCa-2, MTT assay, Mean ± SD, three independent experiments
[10] = PANC-1, read-out: IC50 Values Panc-1

## Nc1ccn([C@@H]2O[C@H](CO)[C@@H](O)C2(F)F)c(=O)n1 [Gemcitabine, reference compound]
[1]; [5]
  IC50: 0.05 ± 0.02 µM
[2]; [6]
  IC50: 0.11 ± 0.07 µM
[3]; [7]
  IC50: 0.2 ± 0.1 µM

## COc1cc(NC(=O)c2cnccn2)c2ncccc2c1 [QN107]
[4]
  IC50: < 1 µM
[1]; [5]
  IC50: 5.53 ± 1.18 µM
[2]; [6]
  IC50: 0.28 ± 0.04 µM
[3]; [7]
  IC50: 0.77 ± 0.21 µM

## COc1cc(NC(=O)c2ncccn2)c2ncccc2c1 [QN113]
[1]; [5]
  IC50: > 10 µM
[2]; [6]
  IC50: 1.3 ± 0.35 µM
[3]; [7]
  IC50: 9 ± 1.41 µM

## O=C(Nc1cc(OCCN2CCOCC2)cc2cccnc12)c1cnccn1 [QN137, Pyrazine-2-carboxylic acid [6-(2-morpholin-4-yl-ethoxy)-quinolin-8-yl]-amide]
[1]; [5]
  IC50: 5.17 ± 1.61 µM
[2]; [6]
  IC50: 1.7 ± 0.52 µM
[3]; [7]
  IC50: 8.17 ± 1.61 µM

## Cc1cnc(C(=O)Nc2cc(OCCN3CCOCC3)cc3cccnc23)cn1 [QN138, 5-Methyl-pyrazine-2-carboxylic acid [6-(2-morpholin-4-yl-ethoxy)-quinolin-8-yl]-amide]
[4]
  IC50: < 1 µM
[1]; [5]
  IC50: 2 ± 0.87 µM
[2]; [6]
  IC50: 0.73 ± 0.15 µM
[3]; [7]
  IC50: 3.5 ± 0.5 µM

## O=C(Nc1cc(OCCF)cc2cccnc12)c1cnccn1 [QN144, Pyrazine-2-carboxylic acid [6-(2-fluoro-ethoxy)-quinolin-8-yl]amide]
[4]
  IC50: < 1 µM
[1]; [5]
  IC50: 4.33 ± 0.76 µM
[2]; [6]
  IC50: 0.37 ± 0.15 µM
[3]; [7]
  IC50: 0.53 ± 0.21 µM

## CN(C)CCOc1cc(NC(=O)c2cnccn2)c2ncccc2c1 [QN147, Pyrazine-2-carboxylic acid [6-(2-dimethylamino-ethoxy)-quinolin-8-yl]-amide]
[1]; [5]
  IC50: > 10 µM
[2]; [6]
  IC50: > 10 µM
[3]; [7]
  IC50: > 10 µM

## Cc1cnc(C(=O)Nc2cc(OCCN(C)C)cc3cccnc23)cn1 [QN148, 5-Methyl-pyrazine-2-carboxylic acid [6-(2-dimethylamino-ethoxy)-quinolin-8-yl]-amide]
[1]; [5]
  IC50: 9.67 ± 0.58 µM
[2]; [6]
  IC50: 1.8 ± 0.46 µM
[3]; [7]
  IC50: 4.5 ± 0.5 µM

## CC(C)(C)OC(=O)NCCOc1cc(NC(=O)c2ncccn2)c2ncccc2c1 [QN153, (2-{8-[(Pyrimidine-2-carbonyl)amino]quinolin-6-yloxy}ethyl)carbamic acid tert-butyl ester]
[1]; [5]
  IC50: > 10 µM
[2]; [6]
  IC50: > 10 µM
[3]; [7]
  IC50: > 10 µM

## NCCOc1cc(NC(=O)c2cnccn2)c2ncccc2c1 [QN154, Pyrazine-2-carboxylic acid [6-(2-aminoethoxy)quinolin-8-yl]amide]
[1]; [5]
  IC50: > 10 µM
[2]; [6]
  IC50: > 10 µM
[3]; [7]
  IC50: > 10 µM

## Cc1cnc(C(=O)Nc2cc(OCCN)cc3cccnc23)cn1 [QN156, 5-Methylpyrazine-2-carboxylic acid [6-(2-aminoethoxy)quinolin-8-yl]amide]
[1]; [5]
  IC50: > 10 µM
[2]; [6]
  IC50: > 10 µM
[3]; [7]
  IC50: > 10 µM

## CC(C)(C)OC(=O)N1CCC(CCOc2cc(NC(=O)c3cnccn3)c3ncccc3c2)CC1 [QN159, 4-(2-{8-[(Pyrazine-2-carbonyl)amino]quinolin-6-yloxy}ethyl)piperidine-1-carboxylic acid tert-butyl ester]
[1]; [5]
  IC50: 3.33 ± 0.58 µM
[2]; [6]
  IC50: 3.67 ± 1.15 µM
[3]; [7]
  IC50: 9.5 ± 0.5 µM

## Cc1cnc(C(=O)Nc2cc(OCCC3CCN(C(=O)OC(C)(C)C)CC3)cc3cccnc23)cn1 [QN160]
[1]; [5]
  IC50: 9.33 ± 1.15 µM
[2]; [6]
  IC50: 9 ± 1.73 µM
[3]; [7]
  IC50: 9.67 ± 0.58 µM

## CC(C)(C)OC(=O)N1CCC(CCOc2cc(NC(=O)c3ncccn3)c3ncccc3c2)CC1 [QN161, 4-(2-{8-[(Pyrimidine-2-carbonyl)amino]quinolin-6-yloxy}ethyl)piperidine-1-carboxylic acid tert-butyl ester]
[1]; [5]
  IC50: > 10 µM
[2]; [6]
  IC50: > 10 µM
[3]; [7]
  IC50: > 10 µM

## NCCOc1cc(NC(=O)c2ncccn2)c2ncccc2c1 [QN162, Pyrimidine-2-carboxylic acid [6-(2-aminoethoxy)quinolin-8-yl]amide]
[1]; [5]
  IC50: > 10 µM
[2]; [6]
  IC50: > 10 µM
[3]; [7]
  IC50: > 10 µM

## O=C(Nc1cc(OCCC2CCNCC2)cc2cccnc12)c1cnccn1 [QN163, Pyrazine-2-carboxylic acid [6-(2-piperidin-4-yl-ethoxy)quinolin-8-yl]amide]
[1]; [5]
  IC50: > 10 µM
[2]; [6]
  IC50: > 10 µM
[3]; [7]
  IC50: > 10 µM

## Cc1cnc(C(=O)Nc2cc(OCCC3CCNCC3)cc3cccnc23)cn1 [QN164, 5-Methylpyrazine-2-carboxylic acid [6-(2-piperidin-4-yl-ethoxy)quinolin-8-yl]amide]
[1]; [5]
  IC50: 8.33 ± 1.53 µM
[2]; [6]
  IC50: 6.17 ± 1.04 µM
[3]; [7]
  IC50: > 10 µM

## O=C(Nc1cc(OCCC2CCNCC2)cc2cccnc12)c1ncccn1 [QN165, Pyrimidine-2-carboxylic acid [6-(2-piperidin-4-yl-ethoxy)quinolin-8-yl]amide]
[1]; [5]
  IC50: > 10 µM
[2]; [6]
  IC50: > 10 µM
[3]; [7]
  IC50: > 10 µM

## Cc1cnc(C(=O)Nc2ccc3ncccc3c2)cn1 [QN520, 5-Methylpyrazine-2-carboxylic acid quinolin-6-ylamide]
[1]; [5]
  IC50: > 10 µM
[2]; [6]
  IC50: > 10 µM
[3]; [7]
  IC50: > 10 µM

## Cc1cnc(C(=O)Nc2cccc3ncccc23)cn1 [QN521, 5-Methylpyrazine-2-carboxylic acid quinolin-5-ylamide]
[1]; [5]
  IC50: > 10 µM
[2]; [6]
  IC50: > 10 µM
[3]; [7]
  IC50: > 10 µM

## Cc1ccc(C(=O)Nc2cccc3cccnc23)cn1 [QN522, 6-Methyl-N-quinolin-8-yl-nicotinamide]
[1]; [8]
  IC50: > 10 µM
[2]; [9]
  IC50: > 10 µM
[3]; [10]
  IC50: > 10 µM

## O=C(Nc1cccc2cccnc12)c1ccc(Br)nc1 [QN524, 6-Bromo-N-quinolin-8-yl-nicotinamide]
[1]; [8]
  IC50: > 10 µM
[2]; [9]
  IC50: > 10 µM
[3]; [10]
  IC50: > 10 µM

## O=C(Nc1cccc2cccnc12)c1ccc(Br)cn1 [QN529, 5-Bromopyridine-2-carboxylic acid quinolin-8-ylamide]
[1]; [8]
  IC50: > 10 µM
[2]; [9]
  IC50: 1.83 ± 0.72 µM
[3]; [10]
  IC50: 4 ± 0.8 µM

## O=C(Nc1cccc2cccnc12)c1cccc(Br)n1 [QN530, 6-Bromopyridine-2-carboxylic acid quinolin-8-ylamide]
[1]; [8]
  IC50: > 10 µM
[2]; [9]
  IC50: > 10 µM
[3]; [10]
  IC50: > 10 µM

## O=C(Nc1cccc2cccnc12)c1ccc(F)nc1 [QN532, 6-Fluoro-N-quinolin-8-yl-nicotinamide]
[1]; [8]
  IC50: > 10 µM
[2]; [9]
  IC50: > 10 µM
[3]; [10]
  IC50: > 10 µM

## O=C(Nc1cccc2cccnc12)c1cccnn1 [QN566, Pyridazine-3-carboxylic acid quinolin-8-ylamide]
[1]; [8]
  IC50: > 10 µM
[2]; [9]
  IC50: 8.5 ± 1.03 µM
[3]; [10]
  IC50: > 10 µM

## Cc1cnc(C(=O)Nc2ccc(Br)c3cccnc23)cn1 [QN571, 5-Methylpyrazine-2-carboxylic acid (5-bromoquinolin-8-yl)amide]
[1]; [5]
  IC50: > 10 µM
[2]; [6]
  IC50: 2.23 ± 0.31 µM
[3]; [7]
  IC50: 6.83 ± 1.73 µM

## O=C(Nc1cccc2cccnc12)c1cnc2ccccc2n1 [QN572, Quinoxaline-2-carboxylic acid quinolin-8-ylamide]
[1]; [8]
  IC50: > 10 µM
[2]; [9]
  IC50: > 10 µM
[3]; [10]
  IC50: > 10 µM

## O=C(Nc1cccc2cccnc12)c1cnc(Cl)cn1 [QN573, 5-Chloropyrazine-2-carboxylic acid quinolin-8-ylamide]
[1]; [8]
  IC50: > 10 µM
[2]; [9]
  IC50: 7 ± 1.3 µM
[3]; [10]
  IC50: 9.3 ± 0.8 µM

## N#C/C(=C\c1cccc(Br)n1)C(=O)Nc1cccc2cccnc12 [QN608]
[1]; [5]
  IC50: > 10 µM
[2]; [6]
  IC50: > 10 µM
[3]; [7]
  IC50: > 10 µM

## N#C/C(=C\c1ccc(O)c(O)c1)C(=O)Nc1cccc2cccnc12 [QN609]
[1]; [5]
  IC50: > 10 µM
[2]; [6]
  IC50: > 10 µM
[3]; [7]
  IC50: > 10 µM

## COc1cc(/C=C(\C#N)C(=O)Nc2cccc3cccnc23)cc(OC)c1OC [QN610]
[1]; [5]
  IC50: > 10 µM
[2]; [6]
  IC50: > 10 µM
[3]; [7]
  IC50: > 10 µM

## Cc1cnc(C(=O)Nc2cccc3ccc(C)nc23)cn1 [QN632, 5-Methylpyrazine-2-carboxylic acid (2-methylquinolin-8-yl)amide]
[1]; [5]
  IC50: > 10 µM
[2]; [6]
  IC50: > 10 µM
[3]; [7]
  IC50: > 10 µM

## Cc1ccc2cccc(NC(=O)c3cnccn3)c2n1 [QN634, Pyrazine-2-carboxylic acid (2-methylquinolin-8-yl)amide]
[1]; [5]
  IC50: > 10 µM
[2]; [6]
  IC50: > 10 µM
[3]; [7]
  IC50: > 10 µM

## O=C(Nc1nccc2cccnc12)c1cnccn1 [QN655, Pyrazine-2-carboxylic acid [1,7]naphthyridin-8-ylamide]
[1]; [5]
  IC50: 7.22 ± 1.02 µM
[2]; [6]
  IC50: 7.7 ± 1.53 µM
[3]; [7]
  IC50: 6.72 ± 1.02 µM

## CN(C)Cc1ccc2cccc(NC(=O)c3cnccn3)c2n1 [QN659, Pyrazine-2-carboxylic acid (2-dimethylaminomethyl-quinolin-8-yl)amide]
[1]; [5]
  IC50: > 10 µM
[2]; [6]
  IC50: > 10 µM
[3]; [7]
  IC50: > 10 µM

## Cc1ccc2cccc(NC(=O)c3ncccn3)c2n1 [QN660, Pyrimidine-2-carboxylic acid (2-methylquinolin-8-yl)amide]
[1]; [5]
  IC50: > 10 µM
[2]; [6]
  IC50: > 10 µM
[3]; [7]
  IC50: > 10 µM

## O=C(Nc1cc(Cl)cc2cccnc12)c1cnccn1 [QN792, N-(6-Chloroquinolin-8-yl)pyrazine-2-carboxamide]
[1]; [5]
  IC50: > 10 µM
[2]; [6]
  IC50: 2.83 ± 0.76 µM
[3]; [7]
  IC50: 2.7 ± 0.52 µM

## Cc1cnc(C(=O)Nc2cc(Cl)cc3cccnc23)cn1 [QN793, N-(6-Chloroquinolin-8-yl)-5-methylpyrazine-2-carboxamide]
[1]; [5]
  IC50: 5.2 ± 0.3 µM
[2]; [6]
  IC50: 1.5 ± 0.5 µM
[3]; [7]
  IC50: 1.77 ± 0.25 µM

## CC(COc1ccccc1)N(CCCl)Cc1ccccc1 (stereo not shown) [pheoxybenzamine, reference compound]
[2]; MIA PaCa-2, read-out: IC50 in MiaPaCa-2, comparison compounds
  IC50: > 30 µM
